Positions of bridges follow the written chain, without caps; N, C: chain ends. Non-standard residues stand in square brackets, D forms with d. Residues, ends and D or L forms follow the SMILES beside them. ξ: configuration not given here. ξIle = CC[C@H](C)C(N)C(=O)O
Molecular target: T1, SARS-CoV-2 Spike A (wild-type) (Severe acute respiratory syndrome coronavirus 2, UniProt P0DTC2)
T1 construct: purchased Meso Scale Diagnostics, LLC V-PLEX SARS-CoV-2 Panel 13 (ACE2) Kit / Panel 23 (ACE2) Kit
Assay: MSD ACE2 competition assay (inhibition of Spike binding with ACE2, ECL), A (wild-type)
Conditions: IC50 Wild Type, Wild Type Spike

In order of falling IC50:
1. CC[C@H](C)[C@H](NC(=O)[C@H](CCCCN)NC(=O)[C@H](CCC(N)=O)NC(C)=O)C(=O)N[C@@H](Cc1ccc(O)cc1)C(=O)N[C@@H](CCC(=O)O)C(=O)N[C@H](C(=O)N[C@H]1CSSC[C@@H](C(=O)N[C@@H](CO)C(=O)N[C@@H](CC(=O)O)C(=O)N[C@@H](CC(C)C)C(=O)N[C@H](C(=O)N[C@@H](Cc2ccc(O)cc2)C(=O)N[C@@H](CCC(=O)O)C(=O)N[C@@H](Cc2ccccc2)C(=O)N[C@@H](CCSC)C(=O)N[C@@H](CCCCN)C(=O)N[C@@H](CCCCN)C(=O)NCC(=O)O)[C@@H](C)CC)NC(=O)[C@H](CCCNC(=N)N)NC(=O)[C@H](CCSC)NC(=O)[C@H](CO)NC(=O)[C@H](C)NC(=O)[C@H](CCC(=O)O)NC(=O)[C@H](C)NC(=O)[C@H](Cc2cnc[nH]2)NC(=O)CNC(=O)[C@H](CC(C)C)NC(=O)[C@H](CCC(=O)O)NC(=O)[C@H](CC(=O)O)NC(=O)[C@H](CC(C)C)NC(=O)[C@H](CC(C)C)NC(=O)[C@H](CCCNC(=N)N)NC1=O)[C@@H](C)CC [Compound 133] (Ac-QKIYEICRLLDELGHAEASMRCSDLIYEFMKKG-OH; disulfide 7-22)  1530 nM
2. CC[C@H](C)[C@H](NC(=O)[C@H](CC(C)C)NC(=O)[C@H](CC(=O)O)NC(=O)[C@H](CO)NC(=O)[C@@H](NC(=O)[C@H](CCCNC(=N)N)NC(=O)[C@H](CCSC)NC(=O)[C@H](CO)NC(=O)[C@H](C)NC(=O)[C@H](CCC(=O)O)NC(=O)[C@H](C)NC(=O)[C@H](Cc1c[nH]cn1)NC(=O)CNC(=O)[C@H](CC(C)C)NC(=O)[C@H](CCC(=O)O)NC(=O)[C@H](CC(=O)O)NC(=O)[C@H](CC(C)C)NC(=O)[C@H](CC(C)C)NC(=O)[C@H](CCCNC(=N)N)NC(=O)[C@H](CCSC)NC(=O)[C@@H](NC(=O)[C@H](CCC(=O)O)NC(=O)[C@H](Cc1ccc(O)cc1)NC(=O)[C@@H](NC(=O)[C@H](CCCCN)NC(=O)[C@H](CCC(N)=O)NC(=O)[C@H](CC(C)C)NC(=O)[C@@H](NC(=O)[C@H](Cc1c[nH]c2ccccc12)NC(=O)[C@H](CCC(=O)O)NC(=O)[C@H](CCCCN)NC(=O)[C@H](CC(=O)O)NC(C)=O)[C@@H](C)CC)[C@@H](C)CC)[C@@H](C)CC)C(C)C)C(=O)N[C@@H](Cc1ccc(O)cc1)C(=O)N[C@@H](CCC(=O)O)C(=O)N[C@@H](Cc1ccccc1)C(=O)N[C@@H](CCSC)C(=O)N[C@@H](CCCCN)C(=O)N[C@@H](CCCCN)C(=O)N[C@@H](CC(=O)O)C(=O)N[C@H]1CSSC[C@@H](C(=O)N[C@H](C(=O)O)[C@@H](C)O)NC(=O)[C@H](Cc2c[nH]c3ccccc23)NC(=O)[C@H](C(C)C)NC(=O)[C@H](CC(C)C)NC(=O)[C@H](CCC(=O)O)NC(=O)CNC(=O)[C@H](CC(C)C)NC(=O)[C@H](Cc2c[nH]cn2)NC(=O)[C@H](Cc2c[nH]c3ccccc23)NC(=O)[C@H](C)NC1=O [Compound 114]  40.7 nM
3. CC[C@H](C)C(N)C(=O)N[C@@H](CC(C)C)C(=O)N[C@@H](CCC(N)=O)C(=O)N[C@@H](CCCCN)C(=O)N[C@H](C(=O)N[C@@H](Cc1ccc(O)cc1)C(=O)N[C@@H](CCC(=O)O)C(=O)N[C@H](C(=O)N[C@H]1CSSC[C@@H](C(=O)N[C@@H](CO)C(=O)N[C@@H](CC(=O)O)C(=O)N[C@@H](CC(C)C)C(=O)N[C@H](C(=O)N[C@@H](Cc2ccc(O)cc2)C(=O)N[C@@H](CCC(=O)O)C(=O)N[C@@H](Cc2ccccc2)C(=O)N[C@@H](CCSC)C(=O)N[C@@H](CCCCN)C(=O)N[C@@H](CCCCN)C(=O)NCC(=O)O)[C@@H](C)CC)NC(=O)[C@H](CCCNC(=N)N)NC(=O)[C@H](CCSC)NC(=O)[C@H](CO)NC(=O)[C@H](C)NC(=O)[C@H](CCC(=O)O)NC(=O)[C@H](C)NC(=O)[C@H](Cc2cnc[nH]2)NC(=O)CNC(=O)[C@H](CC(C)C)NC(=O)[C@H](CCC(=O)O)NC(=O)[C@H](CC(=O)O)NC(=O)[C@H](CC(C)C)NC(=O)[C@H](CC(C)C)NC(=O)[C@H](CCCNC(=N)N)NC1=O)[C@@H](C)CC)[C@@H](C)CC (some centres unmarked) [Compound 134] (H-[ξIle]LQKIYEICRLLDELGHAEASMRCSDLIYEFMKKG-OH; disulfide 9-24)  12.2 nM
4. CC[C@H](C)[C@H](NC(C)=O)C(=O)N[C@@H](CC(C)C)C(=O)N[C@@H](CCC(N)=O)C(=O)N[C@@H](CCCCN)C(=O)N[C@H](C(=O)N[C@@H](Cc1ccc(O)cc1)C(=O)N[C@@H](CCC(=O)O)C(=O)N[C@H](C(=O)N[C@H]1CSSC[C@@H](C(=O)N[C@@H](CO)C(=O)N[C@@H](CC(=O)O)C(=O)N[C@@H](CC(C)C)C(=O)N[C@H](C(=O)N[C@@H](Cc2ccc(O)cc2)C(=O)N[C@@H](CCC(=O)O)C(=O)N[C@@H](Cc2ccccc2)C(=O)N[C@@H](CCSC)C(=O)N[C@@H](CCCCN)C(=O)N[C@@H](CCCCN)C(=O)NCC(=O)O)[C@@H](C)CC)NC(=O)[C@H](CCCNC(=N)N)NC(=O)[C@H](CCSC)NC(=O)[C@H](CO)NC(=O)[C@H](C)NC(=O)[C@H](CCC(=O)O)NC(=O)[C@H](C)NC(=O)[C@H](Cc2cnc[nH]2)NC(=O)CNC(=O)[C@H](CC(C)C)NC(=O)[C@H](CCC(=O)O)NC(=O)[C@H](CC(=O)O)NC(=O)[C@H](CC(C)C)NC(=O)[C@H](CC(C)C)NC(=O)[C@H](CCCNC(=N)N)NC1=O)[C@@H](C)CC)[C@@H](C)CC [Compound 135] (Ac-ILQKIYEICRLLDELGHAEASMRCSDLIYEFMKKG-OH; disulfide 9-24)  12.2 nM
5. CC[C@H](C)[C@H](NC(=O)[C@H](CC(C)C)NC(=O)[C@H](CC(=O)O)NC(=O)[C@H](CO)NC(=O)[C@@H](NC(=O)[C@H](CCCNC(=N)N)NC(=O)[C@H](CCSC)NC(=O)[C@H](CO)NC(=O)[C@H](C)NC(=O)[C@H](CCC(=O)O)NC(=O)[C@H](C)NC(=O)[C@H](Cc1c[nH]cn1)NC(=O)CNC(=O)[C@H](CC(C)C)NC(=O)[C@H](CCC(=O)O)NC(=O)[C@H](CC(=O)O)NC(=O)[C@H](CC(C)C)NC(=O)[C@H](CC(C)C)NC(=O)[C@H](CCCNC(=N)N)NC(=O)[C@H](CCSC)NC(=O)[C@@H](NC(=O)[C@H](CCC(=O)O)NC(=O)[C@H](Cc1ccc(O)cc1)NC(=O)[C@@H](NC(=O)[C@H](CCCCN)NC(=O)[C@H](CCC(N)=O)NC(=O)[C@H](CC(C)C)NC(=O)[C@@H](NC(=O)[C@H](Cc1c[nH]c2ccccc12)NC(=O)[C@H](CCC(=O)O)NC(=O)[C@H](CCCCN)NC(=O)[C@@H](N)CC(=O)O)[C@@H](C)CC)[C@@H](C)CC)[C@@H](C)CC)C(C)C)C(=O)N[C@@H](Cc1ccc(O)cc1)C(=O)N[C@@H](CCC(=O)O)C(=O)N[C@@H](Cc1ccccc1)C(=O)N[C@@H](CCSC)C(=O)N[C@@H](CCCCN)C(=O)N[C@@H](CCCCN)C(=O)NCC(=O)O [Compound 102]  5.96 nM
6. CC[C@H](C)[C@H](NC(=O)[C@H](CC(C)C)NC(=O)[C@H](CC(=O)O)NC(=O)[C@H](CO)NC(=O)[C@@H]1CSSC[C@H](NC(=O)[C@@H](NC(=O)[C@H](CCC(=O)O)NC(=O)[C@H](Cc2ccc(O)cc2)NC(=O)[C@@H](NC(=O)[C@H](CCCCN)NC(=O)[C@H](CCC(N)=O)NC(=O)[C@H](CC(C)C)NC(=O)[C@@H](NC(=O)[C@H](Cc2c[nH]c3ccccc23)NC(=O)[C@H](CCC(=O)O)NC(=O)[C@H](CCCCN)NC(=O)[C@H](CC(=O)O)NC(C)=O)[C@@H](C)CC)[C@@H](C)CC)[C@@H](C)CC)C(=O)N[C@@H](CCCNC(=N)N)C(=O)N[C@@H](CC(C)C)C(=O)N[C@@H](CC(C)C)C(=O)N[C@@H](CC(=O)O)C(=O)N[C@@H](CCC(=O)O)C(=O)N[C@@H](CC(C)C)C(=O)NCC(=O)N[C@@H](Cc2cnc[nH]2)C(=O)N[C@@H](C)C(=O)N[C@@H](CCC(=O)O)C(=O)N[C@@H](C)C(=O)N[C@@H](CO)C(=O)N[C@@H](CCSC)C(=O)N[C@@H](CCCNC(=N)N)C(=O)N1)C(=O)N[C@@H](Cc1ccc(O)cc1)C(=O)N[C@@H](CCC(=O)O)C(=O)N[C@@H](Cc1ccccc1)C(=O)N[C@@H](CCSC)C(=O)N[C@@H](CCCCN)C(=O)N[C@@H](CCCCN)C(=O)NCC(=O)O [Compound 137] (Ac-DKEWILQKIYEICRLLDELGHAEASMRCSDLIYEFMKKG-OH; disulfide 13-28)  2.91 nM
7. CC[C@H](C)[C@H](NC(=O)[C@H](CC(C)C)NC(=O)[C@H](CC(=O)O)NC(=O)[C@H](CO)NC(=O)[C@@H]1CSSC[C@H](NC(=O)[C@@H](NC(=O)[C@H](CCC(=O)O)NC(=O)[C@H](Cc2ccc(O)cc2)NC(=O)[C@@H](NC(=O)[C@H](CCCCN)NC(=O)[C@H](CCC(N)=O)NC(=O)[C@H](CC(C)C)NC(=O)[C@@H](NC(=O)[C@H](Cc2c[nH]c3ccccc23)NC(=O)[C@H](CCC(=O)O)NC(=O)[C@H](CCCCN)NC(=O)[C@@H](N)CC(=O)O)[C@@H](C)CC)[C@@H](C)CC)[C@@H](C)CC)C(=O)N[C@@H](CCCNC(=N)N)C(=O)N[C@@H](CC(C)C)C(=O)N[C@@H](CC(C)C)C(=O)N[C@@H](CC(=O)O)C(=O)N[C@@H](CCC(=O)O)C(=O)N[C@@H](CC(C)C)C(=O)NCC(=O)N[C@@H](Cc2cnc[nH]2)C(=O)N[C@@H](C)C(=O)N[C@@H](CCC(=O)O)C(=O)N[C@@H](C)C(=O)N[C@@H](CO)C(=O)N[C@@H](CCSC)C(=O)N[C@@H](CCCNC(=N)N)C(=O)N1)C(=O)N[C@@H](Cc1ccc(O)cc1)C(=O)N[C@@H](CCC(=O)O)C(=O)N[C@@H](Cc1ccccc1)C(=O)N[C@@H](CCSC)C(=O)N[C@@H](CCCCN)C(=O)N[C@@H](CCCCN)C(=O)NCC(=O)O [Compound 136] (H-DKEWILQKIYEICRLLDELGHAEASMRCSDLIYEFMKKG-OH; disulfide 13-28)  2.53 nM

Same assay, conditions: read-out: IC50 Wild Type, Wild Type Spike

Work on `CC[C@H](C)[C@H](NC(=O)[C@H](CCCCN)NC(=O)[C@H](CCC(N)=O)NC(C)=O)C(=O)N[C@@H](Cc1ccc(O)cc1)C(=O)N[C@@H](CCC(=O)O)C(=O)N[C@H](C(=O)N[C@H]1CSSC[C@@H](C(=O)N[C@@H](CO)C(=O)N[C@@H](CC(=O)O)C(=O)N[C@@H](CC(C)C)C(=O)N[C@H](C(=O)N[C@@H](Cc2ccc(O)cc2)C(=O)N[C@@H](CCC(=O)O)C(=O)N[C@@H](Cc2ccccc2)C(=O)N[C@@H](CCSC)C(=O)N[C@@H](CCCCN)C(=O)N[C@@H](CCCCN)C(=O)NCC(=O)O)[C@@H](C)CC)NC(=O)[C@H](CCCNC(=N)N)NC(=O)[C@H](CCSC)NC(=O)[C@H](CO)NC(=O)[C@H](C)NC(=O)[C@H](CCC(=O)O)NC(=O)[C@H](C)NC(=O)[C@H](Cc2cnc[nH]2)NC(=O)CNC(=O)[C@H](CC(C)C)NC(=O)[C@H](CCC(=O)O)NC(=O)[C@H](CC(=O)O)NC(=O)[C@H](CC(C)C)NC(=O)[C@H](CC(C)C)NC(=O)[C@H](CCCNC(=N)N)NC1=O)[C@@H](C)CC` [Compound 132] (Ac-QKIYEICRLLDELGHAEASMRCSDLIYEFMKKG-OH; disulfide 7-22) yielded an IC50 of 5830 nM.

— US20260306644A1, “ANTIBODY RECRUITING MOLECULES FOR THE TREATMENT OF CORONAVIRUS DISEASE-19” (priority 2023, published 2026)
